The values that follow come from ChEMBL document CHEMBL3758109, “A novel triazole derivative of betulinic acid induces extrinsic and intrinsic apoptosis in human leukemia HL-60 cells” (Eur J Med Chem, 2016).

A short description of experiment [1]: Cytotoxicity against human PC3 cells assessed as cell growth inhibition at 10 uM after 48 hrs by MTT assay. The note with it: PC-3, 48 h, read-out: GI. In kind it is functional.
The subject of experiment [2] is A549. Description: Cytotoxicity against human A549 cells assessed as cell growth inhibition after 48 hrs by MTT assay. The settings on record: A549, 48 h. Type of experiment: functional, cell-based.
The nature of experiment [3]: Cytotoxicity against human HL60 cells assessed as cell growth inhibition at 10 uM after 48 hrs by MTT assay. In kind it is functional. The note with it: HL-60, 48 h, read-out: GI.
The nature of experiment [4]: Cytotoxicity against human PC3 cells assessed as cell growth inhibition after 48 hrs by MTT assay. The settings on record: PC-3, 48 h. Type of experiment: functional, cell-based.
Experiment [5] is described as follows: Cytotoxicity against human MIAPaCa2 cells assessed as cell growth inhibition at 10 uM after 48 hrs by MTT assay. In kind it is functional. The note with it: MIA PaCa-2, 48 h, read-out: GI.
Experiment [6] deals with A549. The experiment can be described thus: Cytotoxicity against human A549 cells assessed as cell growth inhibition at 10 uM after 48 hrs by MTT assay. Type of experiment: functional. The note with it: A549, 48 h, read-out: GI.
Experiment [7] can be described thus: Cytotoxicity against human MIAPaCa2 cells assessed as cell growth inhibition after 48 hrs by MTT assay. Type of experiment: functional, cell-based. The note with it: MIA PaCa-2, 48 h.
The nature of experiment [8]: Cytotoxicity against human HL60 cells assessed as cell growth inhibition after 48 hrs by MTT assay. In kind it is functional, cell-based. The note with it: HL-60, 48 h.

As to `C=C(C)[C@@H]1CC[C@]2(C(=O)OCc3cn(-c4ccccc4OC)nn3)CC[C@]3(C)[C@H](CC[C@@H]4[C@@]5(C)CC[C@H](O)C(C)(C)[C@@H]5CC[C@]43C)[C@@H]12`, the inhibition of growth at 10 µM in experiment [1] came to 3%; in experiment [3], 34%; in experiment [5], 50%; with A549 [6], 12%. For the same compound, the IC50 is above 100 µM with A549 [2], above 100 µM in experiment [4], 9 µM in experiment [7] and 29 µM in experiment [8].

`C=C(C)[C@@H]1CC[C@]2(C(=O)OCc3cn(-c4ccc(Br)cc4)nn3)CC[C@]3(C)[C@H](CC[C@@H]4[C@@]5(C)CC[C@H](O)C(C)(C)[C@@H]5CC[C@]43C)[C@@H]12`: the inhibition of growth at 10 µM in experiment [1] is 45%; in experiment [3] it was 39%; in experiment [5], 61%; in the experiment on A549 [6], 54%. Also, the IC50 with A549 [2] worked out at 8 µM; in experiment [4], 25 µM; in experiment [7] it was 7 µM; in experiment [8] it was 25 µM.

Consider `C=C(C)[C@@H]1CC[C@]2(C(=O)OCc3cn(-c4ccc(C#N)cc4)nn3)CC[C@]3(C)[C@H](CC[C@@H]4[C@@]5(C)CC[C@H](O)C(C)(C)[C@@H]5CC[C@]43C)[C@@H]12`, for which the inhibition of growth at 10 µM amounted to 46% in experiment [1], 55% in experiment [3], 57% in experiment [5] and 63% with A549 [6]. The IC50 in the experiment on A549 [2] was determined as 7 µM; in experiment [4], 12 µM; in experiment [7], 8 µM; in experiment [8] it was 8 µM.

Take `C=C(C)[C@@H]1CC[C@]2(C(=O)OCc3cn(-c4cccc(OC)c4)nn3)CC[C@]3(C)[C@H](CC[C@@H]4[C@@]5(C)CC[C@H](O)C(C)(C)[C@@H]5CC[C@]43C)[C@@H]12`: the inhibition of growth at 10 µM is 10% in experiment [1], 5% in experiment [3], 28% in experiment [5] and 10% in the experiment with A549 [6]. In addition, the IC50 worked out at 25 µM in the experiment with A549 [2], 25 µM in experiment [4], 22 µM in experiment [7] and 25 µM in experiment [8].

For the compound `C=C(C)[C@@H]1CC[C@]2(C(=O)OCc3cn(-c4ccc5cc(OC)ccc5c4)nn3)CC[C@]3(C)[C@H](CC[C@@H]4[C@@]5(C)CC[C@H](O)C(C)(C)[C@@H]5CC[C@]43C)[C@@H]12`, the inhibition of growth at 10 µM in experiment [1] is 33%; in experiment [3], 35%; in experiment [5], 12%; in the experiment with A549 [6], 22%. Moreover, the half-maximal inhibitory concentration (IC50) with A549 [2] is above 100 µM; in experiment [4], 31 µM; in experiment [7], above 100 µM; in experiment [8] it was 29 µM.

As to `C=C(C)[C@@H]1CC[C@]2(C(=O)OCc3cn(-c4ccc(OC)c(OC)c4)nn3)CC[C@]3(C)[C@H](CC[C@@H]4[C@@]5(C)CC[C@H](O)C(C)(C)[C@@H]5CC[C@]43C)[C@@H]12`, the inhibition of growth at 10 µM is 8% in experiment [1], 7% in experiment [3], 8% in experiment [5] and 6% with A549 [6]. Further, the IC50 in the experiment on A549 [2] came to 16 µM; in experiment [4], 11 µM; in experiment [7] it was 21 µM; in experiment [8], 8 µM.

As for `C=C(C)[C@@H]1CC[C@]2(C(=O)O)CC[C@]3(C)[C@H](CC[C@@H]4[C@@]5(C)CC[C@H](O)C(C)(C)[C@@H]5CC[C@]43C)[C@@H]12` [BETULINIC ACID], the inhibition of growth at 10 µM in experiment [1] came to 70%; in experiment [3], 69%; in experiment [5] it was 70%; with A549 [6], 68%. Further, the IC50 in the experiment with A549 [2] is 8 µM; in experiment [4], 7 µM; in experiment [7], 7 µM; in experiment [8] it was 8 µM.

`C=C(C)[C@@H]1CC[C@]2(C(=O)OCc3cn(-c4ccccc4)nn3)CC[C@]3(C)[C@H](CC[C@@H]4[C@@]5(C)CC[C@H](O)C(C)(C)[C@@H]5CC[C@]43C)[C@@H]12`: the inhibition of growth at 10 µM in experiment [1] worked out at 25%; in experiment [3], 11%; in experiment [5], 39%; in the experiment on A549 [6], 27%. The IC50 in the experiment with A549 [2] was 18 µM; in experiment [4], 18 µM; in experiment [7] it was 18 µM; in experiment [8] it was 27 µM.

With `C=C(C)[C@@H]1CC[C@]2(C(=O)OCc3cn(-c4ccccc4I)nn3)CC[C@]3(C)[C@H](CC[C@@H]4[C@@]5(C)CC[C@H](O)C(C)(C)[C@@H]5CC[C@]43C)[C@@H]12`, the inhibition of growth at 10 µM in experiment [1] was found to be 29%; in experiment [3] it was 38%; in experiment [5] it was 53%; in the experiment with A549 [6] it was 40%. In addition, the IC50 in the experiment on A549 [2] is above 100 µM; in experiment [4] it was above 100 µM; in experiment [7] it was 8 µM; in experiment [8] it was 27 µM.

For `C=C(C)[C@@H]1CC[C@]2(C(=O)OCc3cn(-c4cccnc4Cl)nn3)CC[C@]3(C)[C@H](CC[C@@H]4[C@@]5(C)CC[C@H](O)C(C)(C)[C@@H]5CC[C@]43C)[C@@H]12`, the inhibition of growth at 10 µM was 30% in experiment [1], 46% in experiment [3], 55% in experiment [5] and 40% with A549 [6]. Also, the IC50 amounted to 50 µM in the experiment with A549 [2], 69 µM in experiment [4], 8 µM in experiment [7] and 18 µM in experiment [8].

Regarding `C=C(C)[C@@H]1CC[C@]2(C(=O)OCc3cn(-c4ccc5c(c4)OCO5)nn3)CC[C@]3(C)[C@H](CC[C@@H]4[C@@]5(C)CC[C@H](O)C(C)(C)[C@@H]5CC[C@]43C)[C@@H]12`, the inhibition of growth at 10 µM was determined as 49% in experiment [1], 53% in experiment [3], 56% in experiment [5] and 53% in the experiment on A549 [6]. Moreover, the IC50 in the experiment with A549 [2] is 8 µM; in experiment [4] it was 9 µM; in experiment [7], 8 µM; in experiment [8], 8 µM.
